Experimental data: patent US20220204512A1, “SUBSTITUTED FUSED BICYCLIC DERIVATIVE, PREPARATION METHOD THEREFOR, AND APPLICATION THEREOF IN MEDICINES” (Jiangsu Hengrui Medicine Co., Ltd., priority 2019, published 2022)

Target: T1, ERK2 (Homo sapiens, UniProt P28482)
T1 construct: purchased R&D 1879-KS-010
Assay: ERK2 enzyme activity test (ADP-Glo Kinase Assay)
Type: biochemical
Conditions: ADP-Glo chemiluminescence
Method: The purpose of this experiment is to detect the inhibitory ability of the compounds of the present disclosure on the ERK2 enzyme activity, and to evaluate the in vitro activity of the compounds based on the IC50. The ADP-Glo™ Kinase Assay Kit was used in this experiment. The substrate was phosphorylated under the action of the enzyme and ADP was produced at the same time. The ADP-Glo reagent was added to remove the unreacted ATP in the reaction system, and the ADP produced by the reaction was detected with kinase detection reagent. In the presence of the compound, the inhibition rate of the compound was calculated by measuring the signal value.
Preparation of enzyme and substrate: ERK2 (1879-KS-010, R&D) and substrate (custom peptide, Gill Biochemical) were prepared to 0.75 ng/ml and 1500 μM in a buffer (40 mM Tris, 20 mM MgCl2, 0.1 mg/ml BSA, 50 μM DTT), and then the enzyme solution and the substrate solution were prepared into a mixed solution at a volume ratio of 2:1 for later use. ATP was diluted to 500 μM with buffer. The compound was dissolved in DMSO (dimethyl sulfoxide, Shanghai Titan Scientific Co., Ltd.) to prepare a stock solution with an initial concentration of 20 mM, and then Bravo was used to prepare the compound. Finally, 3 μL of a mixed solution of enzyme and substrate, and 1 μL substrate of different concentrations of the compound (the initial concentration is 50 μM, 4-fold dilution) were added to each well of the 384-well plate, and the plate was incubated at 30° C. for 10 minutes, and finally 1 μL 500 μM ATP solution was added to each well, and the plate was incubated at 30° C. for 2 hours. Then 5 μL of ADP-Glo was added, and the plate was incubated at 30° C. for 40 minutes. Then 10 μL of kinase detection buffer was added, and the plate was incubated at 30° C. for 40 minutes. The 384-well plate was taken out and placed in a microplate reader (BMG labtech, PHERAstar FS), and the chemiluminescence was measured by a microplate reader.
Microsoft Excel, Graphpad Prism 5 was used to process and analyze the data.

T1 sequence (P28482 2-360 limits assumed): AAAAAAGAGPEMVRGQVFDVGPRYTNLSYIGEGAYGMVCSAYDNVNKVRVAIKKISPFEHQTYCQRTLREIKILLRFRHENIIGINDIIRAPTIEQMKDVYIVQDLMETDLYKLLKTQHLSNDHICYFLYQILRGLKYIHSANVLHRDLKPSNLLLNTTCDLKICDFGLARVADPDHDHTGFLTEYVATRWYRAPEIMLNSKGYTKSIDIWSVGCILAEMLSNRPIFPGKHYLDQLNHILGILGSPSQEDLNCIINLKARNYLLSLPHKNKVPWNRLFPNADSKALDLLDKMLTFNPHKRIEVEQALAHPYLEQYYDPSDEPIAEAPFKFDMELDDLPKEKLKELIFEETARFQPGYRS

| Compound | IC50 [µM] |
| --- | --- |
| COc1cc(F)cc([C@@H](CO)NC(=O)[C@H](C)N2CCc3cc(-c4nc(Nc5ccnn5C)ncc4C)cn3C2=O)c1 [Example 1-P1, (S)-N-((S)-1-(3-Fluoro-5-methoxyphenyl)-2-hydroxyethyl)-2-(6-(5-methyl-2-((1-methyl-1H-pyrazol-5-yl)amino)pyrimidin-4-yl)-1-oxo-3,4-dihydropyrrolo[1,2-c]pyrimidin-2(1H)-yl)propanamide] | 0.811 |
| COc1cc(F)cc([C@@H](CO)NC(=O)[C@H](C)N2CCc3cc(-c4nc(NC5CCOCC5)ncc4Cl)cn3C2=O)c1 [Example 2-P1, (S)-2-(6-(5-Chloro-2-((tetrahydro-2H-pyran-4-yl)amino)pyrimidin-4-yl)-1-oxo-3,4-dihydropyrrolo[1,2-c]pyrimidin-2(1H)-yl)-N-((S)-1-(3-fluoro-5-methoxyphenyl)-2-hydroxyethyl)propanamide] | 0.336 |
| COc1cc(F)cc([C@@H](CO)NC(=O)[C@H](C)N2CCn3cc(-c4nc(NC5CCOCC5)ncc4Cl)cc3C2=O)c1 [Example 4-P1, (S)-2-(7-(5-Chloro-2-((tetrahydro-2H-pyran-4-yl)amino)pyrimidin-4-yl)-1-oxo-3,4-dihydropyrrolo[1,2-a]pyrazin-2(1H)-yl)-N-((S)-1-(3-fluoro-5-methoxyphenyl)-2-hydroxyethyl)propanamide] | 0.819 |
| Cc1cccc([C@@H](CO)NC(=O)C(C)N2CCn3cc(-c4nc(NC5CCOCC5)ncc4Cl)nc3C2=O)c1 (stereo partly drawn) [Example 5, 2-(2-(5-Chloro-2-((tetrahydro-2H-pyran-4-yl)amino)pyrimidin-4-yl)-8-oxo-5,6-dihydroimidazo[1,2-a]pyrazin-7(8H)-yl)-N-((S)-2-hydroxy-1-(m-tolyl)ethyl)propanamide] | 0.0036 |
| COc1cc(F)cc([C@@H](CO)NC(=O)[C@H](C)N2Cc3cc(-c4nc(NC5CCOCC5)ncc4Cl)cn3C2=O)c1 [Example 6-P1, (S)-2-(6-(5-Chloro-2-((tetrahydro-2H-pyran-4-yl)amino)pyrimidin-4-yl)-3-oxo-1H-pyrrolo[1,2-c]imidazol-2(3H)-yl)-N-((S)-1-(3-fluoro-5-methoxyphenyl)-2-hydroxyethyl)propanamide] | 2.54 |
| COc1cc(F)cc([C@@H](CO)NC(=O)[C@H](C)N2Cc3cc(-c4nc(Nc5ccnn5C)ncc4C)cn3C2=O)c1 [Example 8-P1, (S)-N-((S)-1-(3-Fluoro-5-methoxyphenyl)-2-hydroxyethyl)-2-(6-(5-methyl-2-((1-methyl-1H-pyrazol-5-yl)amino)pyrimidin-4-yl)-3-oxo-1H-pyrrolo[1,2-c]imidazol-2(3H)-yl)propanamide] | 2.12 |
| COc1cc(F)cc([C@@H](CO)NC(=O)[C@@H](C)N2Cc3cc(-c4nc(Nc5ccnn5C)ncc4C)cn3C2=O)c1 [Example 8-P2, (R)-N-((S)-1-(3-Fluoro-5-methoxyphenyl)-2-hydroxyethyl)-2-(6-(5-methyl-2-((1-methyl-1H-pyrazol-5-yl)amino)pyrimidin-4-yl)-3-oxo-1H-pyrrolo[1,2-c]imidazol-2(3H)-yl)propanamide] | 0.026 |
| Cc1cccc([C@@H](CO)NC(=O)[C@H](C)N2CCc3cc(-c4nc(NC5CCOCC5)ncc4Cl)cn3C2=O)c1 [Example 11-P1, (S)-2-(6-(5-Chloro-2-((tetrahydro-2H-pyran-4-yl)amino)pyrimidin-4-yl)-1-oxo-3,4-dihydropyrrolo[1,2-c]pyrimidin-2(1H)-yl)-N-((S)-2-hydroxy-1-(m-tolyl)ethyl)propanamide] | 0.075 |
| COc1cc(F)cc([C@@H](CO)NC(=O)[C@H](C)N2CCn3cc(-c4nc(Nc5ccnn5C)ncc4C)cc3C2=O)c1 [Example 12-P1, (S)-N-((S)-1-(3-Fluoro-5-methoxyphenyl)-2-hydroxyethyl)-2-(7-(5-methyl-2-((1-methyl-1H-pyrazol-5-yl)amino)pyrimidin-4-yl)-1-oxo-3,4-dihydropyrrolo[1,2-a]pyrazin-2(1H)-yl)propanamide] | 0.948 |
